The record followed here is PubChem BioAssay (NCI).

Test systems include RPMI-8226 leukemia; CCRF-CEM leukemia; OVCAR-8 ovarian; M14 melanoma; OVCAR-3 ovarian; HOP-62 NSCLC; A549 NSCLC; HT29 colon; SW-620 colon; SNB-19 CNS.
Holding throughout (assay): NCI-60 cell line screen, 48 h

Molecules are shown by their SMILES.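 Following 48 hours of exposure in 96-well plates, responses at five concentrations were used to interpolate endpoints linearly. GI50 is the concentration that inhibits growth by half. Definition used: TGI = concentration required for complete inhibition of growth.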 Where a SMILES comes first, the peptide text is derived from it.

For `O=[N+]([O-])c1cc(Cl)ccc1OCc1ccccc1`, the TGI with RPMI-8226 leukemia, in the experiment with CCRF-CEM leukemia, in the experiment on OVCAR-8 ovarian, in the experiment with M14 melanoma, with OVCAR-3 ovarian and with HOP-62 NSCLC was more than 100 µM in each case. Further, the TGI is more than 100 µM in the experiment on A549 NSCLC, 84.1 µM in the experiment with HT29 colon and more than 100 µM with SW-620 colon.
Take `CN1CCN(c2nc(NCCCNc3ccnc4cc(Cl)ccc34)c3ccccc3n2)CC1`: the GI50 in the experiment with RPMI-8226 leukemia was 1.8 µM; in the experiment on OVCAR-8 ovarian, 5.92 µM; in the experiment with M14 melanoma, 1.89 µM; in the experiment on OVCAR-3 ovarian, 6.93 µM; in the experiment with HOP-62 NSCLC, 2.81 µM; with A549 NSCLC, 5.01 µM. Besides, the values for the GI50 in the experiment on SNB-19 CNS, with HT29 colon and in the experiment on SW-620 colon were 3.77 µM, 3.33 µM and 3.23 µM, respectively. Besides, the TGI was 7.69 µM in the experiment with RPMI-8226 leukemia; 20.7 µM in the experiment with OVCAR-8 ovarian; 3.77 µM in the experiment with M14 melanoma; 21.6 µM with OVCAR-3 ovarian; 11.6 µM in the experiment with HOP-62 NSCLC; 19.2 µM with A549 NSCLC. Also, the TGI in the experiment on SNB-19 CNS came to 15.3 µM; in the experiment with HT29 colon, 9.87 µM; in the experiment on SW-620 colon, 12.8 µM.
As for `CNS(=O)(=O)NN(C)S(=O)(=O)c1ccc2ccccc2c1`, the TGI in the experiment with RPMI-8226 leukemia, with CCRF-CEM leukemia, in the experiment on OVCAR-8 ovarian, in the experiment on M14 melanoma, in the experiment on HOP-62 NSCLC and with A549 NSCLC was more than 100 µM each time. Moreover, the TGI in the experiment with HT29 colon and in the experiment on SW-620 colon was more than 100 µM each time.
Take `Cc1cc(N2CCCC2)nc(NCc2cc(Nc3ccnc4cc(Cl)ccc34)ccc2F)n1`: the GI50 in the experiment with RPMI-8226 leukemia is 0.404 µM; in the experiment with OVCAR-8 ovarian it was 1.69 µM; in the experiment with M14 melanoma it was 1.37 µM; in the experiment with OVCAR-3 ovarian it was 1.57 µM; in the experiment with HOP-62 NSCLC, 1.46 µM; with A549 NSCLC it was 1.71 µM. In addition, the GI50 with HT29 colon is 0.286 µM. In addition, the TGI was 5.04 µM with RPMI-8226 leukemia; 3.27 µM in the experiment with OVCAR-8 ovarian; 2.85 µM with M14 melanoma; 3.06 µM in the experiment with OVCAR-3 ovarian; 3.14 µM with HOP-62 NSCLC; 3.47 µM in the experiment with A549 NSCLC. Also, the TGI in the experiment on HT29 colon worked out at 1.23 µM.
With `CC1=C(C(=O)Nc2ccc([N+](=O)[O-])cc2)C(c2ccc3c(c2)OCO3)C(C(=O)Nc2ccc([N+](=O)[O-])cc2)=C(C)N1`, the TGI in the experiment on RPMI-8226 leukemia was 68.5 µM; in the experiment with OVCAR-8 ovarian, 27.9 µM; in the experiment with M14 melanoma, 50.4 µM; with OVCAR-3 ovarian it was more than 100 µM; in the experiment on HOP-62 NSCLC, more than 100 µM; with A549 NSCLC it was more than 100 µM. Besides, the TGI in the experiment with SNB-19 CNS, in the experiment on HT29 colon and in the experiment on SW-620 colon was more than 100 µM in each case.
In the case of `CC1=C(Cl)C=CP(=O)(OC(C)C)C1` (stereo not given), the TGI with RPMI-8226 leukemia, in the experiment on CCRF-CEM leukemia, with OVCAR-8 ovarian, in the experiment on M14 melanoma, with OVCAR-3 ovarian and in the experiment with HOP-62 NSCLC was more than 100 µM in each case. In addition, the TGI in the experiment on A549 NSCLC, in the experiment with HT29 colon and in the experiment with SW-620 colon was more than 100 µM in each case.
Consider `CCCCc1n(Cc2ccc3ccccc3c2)cc[n+]1Cc1ccc2ccccc2c1`, for which, in the experiment on CCRF-CEM leukemia, the GI50 is 1.52 µM and the TGI amounted to 4.03 µM. For the same compound, in the experiment with SW-620 colon, the GI50 is 1.2 µM and the TGI was 2.77 µM.
Take `Cc1cccc(N2C(=O)C(=O)C(c3nc4ccccc4s3)/C(=N/NC(=S)NN)C2=O)c1C` (stereo not given): the TGI with RPMI-8226 leukemia, in the experiment on OVCAR-8 ovarian, in the experiment with M14 melanoma, in the experiment with OVCAR-3 ovarian, in the experiment on HOP-62 NSCLC and in the experiment on SNB-19 CNS was more than 100 µM each time. In the experiment on SW-620 colon, this compound gave a TGI of more than 100 µM.
As for `O=S(=O)([O-])[O-].[Cl-].[NH2-].[NH2-].[NH2-].[NH2-].[Ru+3].c1ccncc1`, the TGI in the experiment on RPMI-8226 leukemia, in the experiment on CCRF-CEM leukemia, with OVCAR-8 ovarian, in the experiment on M14 melanoma, in the experiment on OVCAR-3 ovarian and with HOP-62 NSCLC was more than 100 µM in each case. Besides, the TGI in the experiment on A549 NSCLC, in the experiment with HT29 colon and with SW-620 colon was more than 100 µM each time.
Turning to `C[C@]1(Cn2ccnn2)C(C(=O)O)N2C(=O)CC2S1(=O)=O` (stereo not given in full), the GI50 with RPMI-8226 leukemia, with M14 melanoma, with OVCAR-3 ovarian, in the experiment with HOP-62 NSCLC, in the experiment on A549 NSCLC and in the experiment with SNB-19 CNS was more than 100 µM each time. Further, the GI50 with HT29 colon and in the experiment on SW-620 colon was more than 100 µM throughout. The TGI in the experiment with RPMI-8226 leukemia, in the experiment with M14 melanoma, in the experiment on OVCAR-3 ovarian, in the experiment with HOP-62 NSCLC, with A549 NSCLC and in the experiment with SNB-19 CNS was more than 100 µM throughout. The TGI in the experiment on HT29 colon and with SW-620 colon was more than 100 µM in each case.
Take `Cc1ccn2c(CCc3nnc4cc(C)ccn34)nnc2c1`: the TGI in the experiment on RPMI-8226 leukemia, with OVCAR-8 ovarian, in the experiment on M14 melanoma, in the experiment on OVCAR-3 ovarian, in the experiment with HOP-62 NSCLC and in the experiment with A549 NSCLC was more than 100 µM each time. In addition, the TGI in the experiment with SNB-19 CNS, in the experiment with HT29 colon and with SW-620 colon was more than 100 µM each time.
`CCC(C)C1NC(=O)C2CCCN2C(=O)CNC(=O)C(C)NC(=O)C(Cc2ccccc2)NC(=O)C(C(C)C)NC1=O` (stereo not given) (cyclo(GPIVFA); configuration not given here): the TGI in the experiment on RPMI-8226 leukemia, with OVCAR-8 ovarian, with M14 melanoma, in the experiment on OVCAR-3 ovarian, with HOP-62 NSCLC and in the experiment with A549 NSCLC was more than 100 µM in each case. Also, the TGI with SNB-19 CNS, in the experiment with HT29 colon and in the experiment on SW-620 colon was more than 100 µM in each case.
Turning to `O=S1(=O)CCCS(=O)(=O)C(c2ccccc2)=C1c1ccccc1`, the TGI was more than 100 µM in the experiment on RPMI-8226 leukemia; more than 100 µM in the experiment on CCRF-CEM leukemia; more than 100 µM with OVCAR-8 ovarian; more than 100 µM in the experiment on M14 melanoma; more than 100 µM in the experiment with OVCAR-3 ovarian; 96.8 µM in the experiment on HOP-62 NSCLC. Besides, the TGI in the experiment on A549 NSCLC, in the experiment with HT29 colon and with SW-620 colon was more than 100 µM throughout.
